Laboratory results published in paper PMC6199309, “A therapeutic approach to pantothenate kinase associated neurodegeneration” (Nature Communications, 2018).
Entries after “also recorded” stand apart in the source; their conditions may differ.

How the values were obtained:
Type in all cases: binding
[1] = biological target: T1, EGFR(L747-E749del, A750P) (Homo sapiens, UniProt P00533, A750P/DEL747-749); assay: KINOMEscan; conditions: read-out: %Ctrl @ 10000nM
T1 construct: purchased DiscoverX KINOMEscan

[2] = biological target: T2, EPHA2 (Homo sapiens, UniProt P29317); assay: KINOMEscan; conditions: read-out: %Ctrl @ 10000nM
T2 construct: purchased DiscoverX KINOMEscan

[3] = biological target: T3, S6K1 (Homo sapiens, UniProt P23443); assay: KINOMEscan; conditions: read-out: %Ctrl @ 10000nM
T3 construct: purchased DiscoverX KINOMEscan

[4] = biological target: T4, ERK5 (Homo sapiens, UniProt Q13164); assay: KINOMEscan; conditions: read-out: %Ctrl @ 10000nM
T4 construct: purchased DiscoverX KINOMEscan

[5] = biological target: T5, TESK1 (Homo sapiens, UniProt Q15569); assay: KINOMEscan; conditions: read-out: %Ctrl @ 10000nM
T5 construct: purchased DiscoverX KINOMEscan

[6] = biological target: T6, TRKB (Homo sapiens, UniProt Q16620); assay: KINOMEscan; conditions: read-out: %Ctrl @ 10000nM
T6 construct: purchased DiscoverX KINOMEscan

[7] = biological target: T7, CLK2 (Homo sapiens, UniProt P49760); assay: KINOMEscan; conditions: read-out: %Ctrl @ 10000nM
T7 construct: purchased DiscoverX KINOMEscan

[8] = biological target: T8, DYRK2 (Homo sapiens, UniProt Q92630); assay: KINOMEscan; conditions: read-out: %Ctrl @ 10000nM
T8 construct: purchased DiscoverX KINOMEscan

[9] = biological target: T9, ARK5 (Homo sapiens, UniProt O60285); assay: KINOMEscan; conditions: read-out: %Ctrl @ 10000nM
T9 construct: purchased DiscoverX KINOMEscan

[10] = biological target: T10, TRKC (Homo sapiens, UniProt Q16288); assay: KINOMEscan; conditions: read-out: %Ctrl @ 10000nM
T10 construct: purchased DiscoverX KINOMEscan

[11] = biological target: T11, AURKB (Homo sapiens, UniProt Q96GD4); assay: KINOMEscan; conditions: read-out: %Ctrl @ 10000nM
T11 construct: purchased DiscoverX KINOMEscan

[12] = biological target: T12, RSK3(Kin.Dom.1-N-terminal) (Homo sapiens, UniProt Q15349); assay: KINOMEscan; conditions: read-out: %Ctrl @ 10000nM
T12 construct: RSK3(Kin.Dom.1-N-terminal); purchased DiscoverX KINOMEscan

[13] = biological target: T13, BMPR1B (Homo sapiens, UniProt O00238); assay: KINOMEscan; conditions: read-out: %Ctrl @ 10000nM
T13 construct: purchased DiscoverX KINOMEscan

[14] = biological target: T14, HASPIN (Homo sapiens, UniProt Q8TF76); assay: KINOMEscan; conditions: read-out: %Ctrl @ 10000nM
T14 construct: purchased DiscoverX KINOMEscan

[15] = biological target: T15, CAMK4 (Homo sapiens, UniProt Q16566); assay: KINOMEscan; conditions: read-out: %Ctrl @ 10000nM
T15 construct: purchased DiscoverX KINOMEscan

[16] = biological target: T16, PRKD1 (Homo sapiens, UniProt Q15139); assay: KINOMEscan; conditions: read-out: %Ctrl @ 10000nM
T16 construct: purchased DiscoverX KINOMEscan

[17] = biological target: T17, PAK7 (Homo sapiens, UniProt Q9P286); assay: KINOMEscan; conditions: read-out: %Ctrl @ 10000nM
T17 construct: purchased DiscoverX KINOMEscan

[18] = biological target: T18, PRP4 (Homo sapiens, UniProt Q13523); assay: KINOMEscan; conditions: read-out: %Ctrl @ 10000nM
T18 construct: purchased DiscoverX KINOMEscan

[19] = biological target: T19, ERN1 (Homo sapiens, UniProt O75460); assay: KINOMEscan; conditions: read-out: %Ctrl @ 10000nM
T19 construct: purchased DiscoverX KINOMEscan

[20] = biological target: T20, CSNK1G2 (Homo sapiens, UniProt P78368); assay: KINOMEscan; conditions: read-out: %Ctrl @ 10000nM
T20 construct: purchased DiscoverX KINOMEscan

[21] = biological target: T21, MAPKAPK5 (Homo sapiens, UniProt Q8IW41); assay: KINOMEscan; conditions: read-out: %Ctrl @ 10000nM
T21 construct: purchased DiscoverX KINOMEscan

[22] = biological target: T22, MRCKB (Homo sapiens, UniProt Q9Y5S2); assay: KINOMEscan; conditions: read-out: %Ctrl @ 10000nM
T22 construct: purchased DiscoverX KINOMEscan

[23] = biological target: T23, PRKCH (Homo sapiens, UniProt P24723); assay: KINOMEscan; conditions: read-out: %Ctrl @ 10000nM
T23 construct: purchased DiscoverX KINOMEscan

[24] = biological target: T24, TIE2 (Homo sapiens, UniProt Q02763); assay: KINOMEscan; conditions: read-out: %Ctrl @ 10000nM
T24 construct: purchased DiscoverX KINOMEscan

[25] = tested on: 468 human kinases; assay: KINOMEscan scanMAX panel
[26] = biological target: T25, MLK1 (Homo sapiens, UniProt P80192); assay: KINOMEscan; conditions: read-out: %Ctrl @ 10000nM
T25 construct: purchased DiscoverX KINOMEscan

[27] = biological target: T26, DRAK1 (Homo sapiens, UniProt Q9UEE5); assay: KINOMEscan; conditions: read-out: %Ctrl @ 10000nM
T26 construct: purchased DiscoverX KINOMEscan

[28] = biological target: T27, ABL1-phosphorylated (Homo sapiens, UniProt P00519); assay: KINOMEscan; conditions: read-out: %Ctrl @ 10000nM
T27 construct: purchased DiscoverX KINOMEscan

[29] = biological target: T28, PIK3C2B (Homo sapiens, UniProt O00750); assay: KINOMEscan; conditions: read-out: %Ctrl @ 10000nM
T28 construct: purchased DiscoverX KINOMEscan

[30] = biological target: T29, MST1R (Homo sapiens, UniProt Q04912); assay: KINOMEscan; conditions: read-out: %Ctrl @ 10000nM
T29 construct: purchased DiscoverX KINOMEscan

[31] = biological target: T30, PRKCD (Homo sapiens, UniProt Q05655); assay: KINOMEscan; conditions: read-out: %Ctrl @ 10000nM
T30 construct: purchased DiscoverX KINOMEscan

[32] = biological target: T31, TSSK1B (Homo sapiens, UniProt Q9BXA7); assay: KINOMEscan; conditions: read-out: %Ctrl @ 10000nM
T31 construct: DNA label for qPCR (T7 phage fusion or DNA tag); purchased DiscoverX scanMAX; host or cells: E. coli BL21-derived (T7 phage) or HEK-293

[33] = biological target: T32, MEK2 (Homo sapiens, UniProt P36507); assay: KINOMEscan; conditions: read-out: %Ctrl @ 10000nM
T32 construct: purchased DiscoverX KINOMEscan

[34] = biological target: T33, KIT(V559D,V654A) (Homo sapiens, UniProt P10721, V559D/V654A); assay: KINOMEscan; conditions: read-out: %Ctrl @ 10000nM
T33 construct: purchased DiscoverX KINOMEscan

[35] = biological target: T34, TAOK3 (Homo sapiens, UniProt Q9H2K8); assay: KINOMEscan; conditions: read-out: %Ctrl @ 10000nM
T34 construct: purchased DiscoverX KINOMEscan

[36] = biological target: T35, MAP4K5 (Homo sapiens, UniProt Q9Y4K4); assay: KINOMEscan; conditions: read-out: %Ctrl @ 10000nM
T35 construct: purchased DiscoverX KINOMEscan

[37] = biological target: T36, MEK3 (Homo sapiens, UniProt P46734); assay: KINOMEscan; conditions: read-out: %Ctrl @ 10000nM
T36 construct: purchased DiscoverX KINOMEscan

[38] = biological target: T37, NEK5 (Homo sapiens, UniProt Q6P3R8); assay: KINOMEscan; conditions: read-out: %Ctrl @ 10000nM
T37 construct: purchased DiscoverX KINOMEscan

[39] = biological target: T38, FGR (Homo sapiens, UniProt P09769); assay: KINOMEscan; conditions: read-out: %Ctrl @ 10000nM
T38 construct: purchased DiscoverX KINOMEscan

[40] = biological target: T39, ICK (Homo sapiens, UniProt Q9UPZ9); assay: KINOMEscan; conditions: read-out: %Ctrl @ 10000nM
T39 construct: purchased DiscoverX KINOMEscan

[41] = biological target: T40, DAPK1 (Homo sapiens, UniProt P53355); assay: KINOMEscan; conditions: read-out: %Ctrl @ 10000nM
T40 construct: purchased DiscoverX KINOMEscan

[42] = 10000 nM, 403 non-mutant kinases

T28 sequence (O00750 whole entry): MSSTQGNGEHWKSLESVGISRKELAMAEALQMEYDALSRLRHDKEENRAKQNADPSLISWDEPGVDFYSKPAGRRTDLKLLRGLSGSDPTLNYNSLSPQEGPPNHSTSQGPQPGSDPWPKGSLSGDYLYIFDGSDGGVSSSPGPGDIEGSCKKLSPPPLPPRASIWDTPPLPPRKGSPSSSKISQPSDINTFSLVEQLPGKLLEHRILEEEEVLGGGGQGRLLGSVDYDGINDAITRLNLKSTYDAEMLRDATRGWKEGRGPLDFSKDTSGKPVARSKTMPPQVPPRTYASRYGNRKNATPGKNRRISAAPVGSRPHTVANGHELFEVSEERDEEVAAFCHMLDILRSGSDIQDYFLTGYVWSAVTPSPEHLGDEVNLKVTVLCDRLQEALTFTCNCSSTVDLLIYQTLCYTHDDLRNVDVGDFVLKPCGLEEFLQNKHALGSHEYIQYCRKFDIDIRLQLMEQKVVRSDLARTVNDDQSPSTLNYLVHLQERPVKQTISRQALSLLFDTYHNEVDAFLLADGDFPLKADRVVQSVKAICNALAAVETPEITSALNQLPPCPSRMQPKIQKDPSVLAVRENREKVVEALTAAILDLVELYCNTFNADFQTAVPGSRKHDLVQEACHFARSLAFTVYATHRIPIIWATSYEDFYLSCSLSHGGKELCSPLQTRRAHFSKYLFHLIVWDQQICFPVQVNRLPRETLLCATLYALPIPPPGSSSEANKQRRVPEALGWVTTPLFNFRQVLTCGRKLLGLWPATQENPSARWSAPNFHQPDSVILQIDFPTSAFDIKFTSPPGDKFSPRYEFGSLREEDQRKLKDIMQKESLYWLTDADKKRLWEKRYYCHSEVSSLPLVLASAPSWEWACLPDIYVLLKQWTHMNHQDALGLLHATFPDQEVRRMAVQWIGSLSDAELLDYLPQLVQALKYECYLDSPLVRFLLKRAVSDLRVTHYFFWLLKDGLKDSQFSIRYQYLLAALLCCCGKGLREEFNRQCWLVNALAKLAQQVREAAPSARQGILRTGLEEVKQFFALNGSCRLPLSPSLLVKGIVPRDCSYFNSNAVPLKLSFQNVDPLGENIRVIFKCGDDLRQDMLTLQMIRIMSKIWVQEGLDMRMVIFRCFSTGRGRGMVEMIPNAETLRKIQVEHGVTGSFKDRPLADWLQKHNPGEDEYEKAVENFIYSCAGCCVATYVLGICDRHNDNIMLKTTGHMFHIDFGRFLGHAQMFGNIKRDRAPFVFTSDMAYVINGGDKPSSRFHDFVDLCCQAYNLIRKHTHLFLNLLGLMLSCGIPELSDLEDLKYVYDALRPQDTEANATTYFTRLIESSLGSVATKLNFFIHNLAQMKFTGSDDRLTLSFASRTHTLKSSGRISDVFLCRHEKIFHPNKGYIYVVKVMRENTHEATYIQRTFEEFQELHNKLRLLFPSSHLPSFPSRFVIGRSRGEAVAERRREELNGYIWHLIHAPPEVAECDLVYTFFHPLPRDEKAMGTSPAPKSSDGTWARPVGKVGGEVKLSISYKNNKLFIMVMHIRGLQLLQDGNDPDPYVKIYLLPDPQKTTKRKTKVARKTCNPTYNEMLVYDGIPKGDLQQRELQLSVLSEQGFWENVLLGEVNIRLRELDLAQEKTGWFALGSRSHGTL
T9 sequence (O60285 whole entry): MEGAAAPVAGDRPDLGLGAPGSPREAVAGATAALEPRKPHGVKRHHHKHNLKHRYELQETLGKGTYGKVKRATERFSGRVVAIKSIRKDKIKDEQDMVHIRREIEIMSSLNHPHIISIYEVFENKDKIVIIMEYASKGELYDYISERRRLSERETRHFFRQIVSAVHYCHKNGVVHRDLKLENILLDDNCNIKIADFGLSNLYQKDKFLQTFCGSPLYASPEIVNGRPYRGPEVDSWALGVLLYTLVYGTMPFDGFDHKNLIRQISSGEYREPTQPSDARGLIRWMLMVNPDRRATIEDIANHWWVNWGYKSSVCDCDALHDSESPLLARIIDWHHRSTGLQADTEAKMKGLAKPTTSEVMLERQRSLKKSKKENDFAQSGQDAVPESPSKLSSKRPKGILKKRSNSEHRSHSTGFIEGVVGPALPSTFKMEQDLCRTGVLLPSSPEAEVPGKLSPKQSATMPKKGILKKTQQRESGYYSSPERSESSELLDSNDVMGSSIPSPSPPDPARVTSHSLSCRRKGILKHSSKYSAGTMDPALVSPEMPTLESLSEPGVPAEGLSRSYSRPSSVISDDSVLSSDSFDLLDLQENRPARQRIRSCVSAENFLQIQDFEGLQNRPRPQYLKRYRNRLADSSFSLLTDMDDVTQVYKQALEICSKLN
T16 sequence (Q15139 whole entry): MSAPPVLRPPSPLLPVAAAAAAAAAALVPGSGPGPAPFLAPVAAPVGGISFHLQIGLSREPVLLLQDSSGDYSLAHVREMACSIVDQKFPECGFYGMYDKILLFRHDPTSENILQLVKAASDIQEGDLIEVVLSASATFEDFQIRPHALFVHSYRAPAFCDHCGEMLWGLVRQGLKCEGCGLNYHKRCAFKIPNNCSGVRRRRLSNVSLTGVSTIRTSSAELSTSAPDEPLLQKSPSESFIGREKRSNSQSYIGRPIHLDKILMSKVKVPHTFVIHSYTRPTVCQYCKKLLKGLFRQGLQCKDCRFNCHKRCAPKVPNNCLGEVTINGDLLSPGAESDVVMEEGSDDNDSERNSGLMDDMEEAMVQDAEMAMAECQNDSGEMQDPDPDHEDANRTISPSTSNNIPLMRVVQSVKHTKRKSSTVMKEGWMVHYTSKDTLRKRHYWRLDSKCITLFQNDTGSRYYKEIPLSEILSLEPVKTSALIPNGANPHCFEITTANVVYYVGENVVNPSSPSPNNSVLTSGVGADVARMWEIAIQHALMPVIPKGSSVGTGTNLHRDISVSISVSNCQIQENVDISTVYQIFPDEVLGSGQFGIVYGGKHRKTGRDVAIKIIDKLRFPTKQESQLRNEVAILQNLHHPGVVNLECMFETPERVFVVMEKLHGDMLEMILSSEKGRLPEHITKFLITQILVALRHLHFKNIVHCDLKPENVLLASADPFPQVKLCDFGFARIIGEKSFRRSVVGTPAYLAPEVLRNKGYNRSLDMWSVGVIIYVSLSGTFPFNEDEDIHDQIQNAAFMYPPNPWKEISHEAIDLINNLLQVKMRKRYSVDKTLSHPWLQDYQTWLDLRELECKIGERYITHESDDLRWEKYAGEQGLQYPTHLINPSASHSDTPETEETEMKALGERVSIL
T10 sequence (Q16288 32-839): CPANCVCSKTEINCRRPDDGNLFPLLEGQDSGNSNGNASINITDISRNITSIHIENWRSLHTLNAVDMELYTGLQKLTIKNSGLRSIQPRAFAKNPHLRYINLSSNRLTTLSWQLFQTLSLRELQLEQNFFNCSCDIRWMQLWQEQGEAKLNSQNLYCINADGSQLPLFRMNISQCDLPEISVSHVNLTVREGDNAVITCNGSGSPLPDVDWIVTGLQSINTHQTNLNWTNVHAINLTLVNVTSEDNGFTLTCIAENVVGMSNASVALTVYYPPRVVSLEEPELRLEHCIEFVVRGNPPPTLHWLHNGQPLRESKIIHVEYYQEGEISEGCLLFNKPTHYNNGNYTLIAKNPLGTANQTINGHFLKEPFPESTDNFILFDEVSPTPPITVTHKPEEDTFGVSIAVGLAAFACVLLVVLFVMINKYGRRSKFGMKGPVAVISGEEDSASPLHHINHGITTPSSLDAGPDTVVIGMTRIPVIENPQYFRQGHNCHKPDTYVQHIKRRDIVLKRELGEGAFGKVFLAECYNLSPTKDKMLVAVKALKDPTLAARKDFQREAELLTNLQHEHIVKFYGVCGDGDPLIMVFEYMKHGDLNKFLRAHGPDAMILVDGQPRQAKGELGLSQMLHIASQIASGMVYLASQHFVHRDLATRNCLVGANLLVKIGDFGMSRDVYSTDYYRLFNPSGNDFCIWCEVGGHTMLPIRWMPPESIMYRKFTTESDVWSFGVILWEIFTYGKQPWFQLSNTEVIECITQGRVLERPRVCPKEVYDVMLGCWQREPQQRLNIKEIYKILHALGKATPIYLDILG
T35 sequence (Q9Y4K4 whole entry): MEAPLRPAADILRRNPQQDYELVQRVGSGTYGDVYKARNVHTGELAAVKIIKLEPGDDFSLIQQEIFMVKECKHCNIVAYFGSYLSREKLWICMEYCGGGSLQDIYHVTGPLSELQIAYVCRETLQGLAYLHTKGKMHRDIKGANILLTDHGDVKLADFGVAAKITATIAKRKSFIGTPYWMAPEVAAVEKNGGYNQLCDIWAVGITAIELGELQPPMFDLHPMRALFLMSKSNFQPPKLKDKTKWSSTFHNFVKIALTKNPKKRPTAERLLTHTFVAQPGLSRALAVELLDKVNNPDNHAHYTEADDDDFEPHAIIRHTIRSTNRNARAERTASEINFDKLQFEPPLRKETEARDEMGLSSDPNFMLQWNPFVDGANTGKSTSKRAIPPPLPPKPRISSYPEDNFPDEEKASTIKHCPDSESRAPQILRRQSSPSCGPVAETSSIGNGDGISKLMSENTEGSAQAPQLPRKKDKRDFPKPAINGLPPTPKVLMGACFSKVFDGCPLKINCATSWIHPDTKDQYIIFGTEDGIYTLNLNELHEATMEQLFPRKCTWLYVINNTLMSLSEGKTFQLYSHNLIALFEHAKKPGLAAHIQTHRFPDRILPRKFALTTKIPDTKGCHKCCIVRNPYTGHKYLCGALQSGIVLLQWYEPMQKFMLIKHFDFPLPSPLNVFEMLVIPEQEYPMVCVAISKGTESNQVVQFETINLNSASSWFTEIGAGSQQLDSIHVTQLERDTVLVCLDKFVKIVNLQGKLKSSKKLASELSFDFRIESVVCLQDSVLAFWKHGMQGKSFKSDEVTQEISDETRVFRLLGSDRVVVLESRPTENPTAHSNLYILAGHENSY

## CC(C)c1ccc(CC(=O)N2CCN(c3ccc(C#N)nn3)CC2)cc1 [PZ-2891, 6-(4-(2-(4-isopropylphenyl)acetyl)piperazin-1-yl)pyridazine-3-carbonitrile]
[1]
  remaining binding at 10 µM: 72%
[2]
  remaining binding at 10 µM: 100%
[3]
  remaining binding at 10 µM: 96%
[4]
  remaining binding at 10 µM: 93%
[5]
  remaining binding at 10 µM: 86%
[6]
  remaining binding at 10 µM: 100%
[7]
  remaining binding at 10 µM: 94%
[8]
  remaining binding at 10 µM: 97%
[9]
  remaining binding at 10 µM: 94%
[10]
  remaining binding at 10 µM: 100%
[11]
  remaining binding at 10 µM: 89%
[12]
  remaining binding at 10 µM: 72%
[13]
  remaining binding at 10 µM: 60%
[14]
  remaining binding at 10 µM: 85%
[15]
  remaining binding at 10 µM: 89%
[16]
  remaining binding at 10 µM: 89%
[17]
  remaining binding at 10 µM: 73%
[18]
  remaining binding at 10 µM: 86%
[19]
  remaining binding at 10 µM: 82%
[20]
  remaining binding at 10 µM: 62%
[21]
  remaining binding at 10 µM: 74%
[22]
  remaining binding at 10 µM: 100%
[23]
  remaining binding at 10 µM: 92%
[24]
  remaining binding at 10 µM: 97%
[25]; 10 μM
  inhibitory activity in screen of 468 kinases: did not exhibit off-target inhibition; also recorded: did not have significant inhibitory activity
[25]; [42]
  Number of Hits S(1): 1
  Number of Hits S(10): 2
  Number of Hits S(35): 2
[26]
  remaining binding at 10 µM: 81%
[27]
  remaining binding at 10 µM: 99%
[28]
  remaining binding at 10 µM: 78%
[29]
  remaining binding at 10 µM: 100%
[30]
  remaining binding at 10 µM: 73%
[31]
  remaining binding at 10 µM: 89%
[32]
  remaining binding at 10 µM: 99%
[33]
  remaining binding at 10 µM: 80%
[34]
  remaining binding at 10 µM: 73%
[35]
  remaining binding at 10 µM: 95%
[36]
  remaining binding at 10 µM: 100%
[37]
  remaining binding at 10 µM: 61%
[38]
  remaining binding at 10 µM: 100%
[39]
  remaining binding at 10 µM: 96%
[40]
  remaining binding at 10 µM: 81%
[41]
  remaining binding at 10 µM: 63%
